Square brackets hold non-standard residues; d marks the D form. Peptide text beside a SMILES is read from it. * marks the point of attachment. NHOctadecyl = CCCCCCCCCCCCCCCCCCN*; Cya = N[C@@H](CS(=O)(=O)O)C(=O)O; NMeF = CN[C@@H](Cc1ccccc1)C(=O)O; hPhe = N[C@@H](CCc1ccccc1)C(=O)O; Cha = N[C@@H](CC1CCCCC1)C(=O)O; NMeD = CN[C@@H](CC(=O)O)C(=O)O; Phg = N[C@H](C(=O)O)c1ccccc1; X8 = CCCCCCCCCCCCCCCCCCO*; Piperidide = C1CCN(*)CC1; X7 = O=C(CO*)OCc1ccccc1; PhAc = O=C(Cc1ccccc1)*; ODecyl = CCCCCCCCCCO*; X1 = CCCCCCCCCCCCCCO*; X4 = CCN(CC)C(=O)CO*; Bz = O=C(c1ccccc1)*; X5 = CCCCCCCCCCCCO*; Ahx = NCCCCCC(=O)O; X6 = O=C(O)CO*
What follows are compounds tested against VLA-4 (Homo sapiens, UniProt P05556+P13612) (assay: In vitro binding assay: 51Cr-labeled Jurkat cells to solid phase-bound CS-1 compound (SEQ ID NO:1)). Conditions: not given.
Type: cell-based
Set-up: inflammatory cells that contain the VLA-4 receptor [Jurkat cells; host or cells: Jurkat cells (human T lymphoblastic line)
Experimental: Binding inhibition is measured here as a concentration of compound that inhibits one-half the binding between a standard number of Jurkat cells and a standard amount of CS-1 compound bound to the surface of a microtiter plate well. Those concentrations are conveniently expressed as IC50 values, smaller numbers indicating a lower concentration required to inhibit 50 percent binding and therefore greater potency. Further specifics of this assay are provided hereinafter.
Jurkat cells (ATCC TIB 152), a human T lymphoblastic line, labeled with ^51 chromium were used to assay in vitro binding inhibition provided by various compounds discussed herein.
The plates were prepared as follows: The 25-mer CS-1 compound (SEQ ID NO:1) dissolved at 0.5-1 μg/ml in a buffer of 0.1M NaHCO3 at pH 9.5 that also contained 10 μg/ml of bovine serum albumin (BSA) or a conjugate of the CS-1 compound linked to ovalbumin (CS-1-OVA) dissolved at 1-2.5 μg/ml in the same buffer was used as the substrate. Each well of the microtiter plates was coated with 50 μl of substrate or buffer alone for controls. The wells were permitted to dry out completely and were then rinsed twice with PBS at pH 7.4. Non-specific binding sites of each well were then blocked using 200 μl per well of RPMI/1 percent BSA for two hours at room temperature.
Jurkat cells (3-5×10^6 cells) were placed into a 15 ml Falcon™ round-bottom tube with a cap. The tube was centrifuged, and the extra medium was then removed.
Two hundred microliters of a ^51 Cr labeling solution were added to the centrifuged cells and maintained in contact with the cells for 90-120 minutes in a warm room. […] Longer contact times provide a greater amount of labeling but lower cell viability.
The labeled cells are washed with (i) complete medium, (ii) 1 mM EDTA/PBS and then (iii) RPM1/1 percent BSA free of serum components. The cells are centrifuged after each washing. The cells are finally resuspended in serum-free RPMI/1 percent BSA at a concentration of 1×10^6 viable cells/ml, which provides a concentration that is diluted by one-half in the assay.
Inhibitor compounds are prepared as stock solutions at 20 mg/ml in DMSO in 1.5 ml cryogenic screwcap vials, and were stored at -70° C. Using Flow™ round-bottom or V-bottom microtiter plates, the inhibitor compounds were prepared at twice the assay concentration in RPMI/1 percent BSA at 60 μl/well.
Four initial dilutions were typically used.
The ^51 Cr-labeled cells ([…] at 60 μl/well) were then admixed with the diluted compound solutions. The admixtures were maintained at room temperature (about 22° C.) for 30 minutes.
One hundred microliters of each inhibitor compound/cell admixture were transferred to the substrate-coated wells. This was done in triplicate for each dilution. The resulting plates were incubated for 30 minutes at 37° C. and then washed gently three times with RPMI/1 percent BSA at 200 μl/well. Binding was observed microscopically, particularly after the second wash.
The bound cells were then lysed by the addition of a 0.5 percent solution of sodium dodecylsulfate in water at 100 μl/well. The resulting solutions were then processed for counting and calculation of IC50 values following usual procedures.
The data of Table 1 are normalized to the binding of SEQ ID NO: 3. […] Multiple assays for the same compound were averaged.

Sequence of VLA-4 (P13612 34-1032): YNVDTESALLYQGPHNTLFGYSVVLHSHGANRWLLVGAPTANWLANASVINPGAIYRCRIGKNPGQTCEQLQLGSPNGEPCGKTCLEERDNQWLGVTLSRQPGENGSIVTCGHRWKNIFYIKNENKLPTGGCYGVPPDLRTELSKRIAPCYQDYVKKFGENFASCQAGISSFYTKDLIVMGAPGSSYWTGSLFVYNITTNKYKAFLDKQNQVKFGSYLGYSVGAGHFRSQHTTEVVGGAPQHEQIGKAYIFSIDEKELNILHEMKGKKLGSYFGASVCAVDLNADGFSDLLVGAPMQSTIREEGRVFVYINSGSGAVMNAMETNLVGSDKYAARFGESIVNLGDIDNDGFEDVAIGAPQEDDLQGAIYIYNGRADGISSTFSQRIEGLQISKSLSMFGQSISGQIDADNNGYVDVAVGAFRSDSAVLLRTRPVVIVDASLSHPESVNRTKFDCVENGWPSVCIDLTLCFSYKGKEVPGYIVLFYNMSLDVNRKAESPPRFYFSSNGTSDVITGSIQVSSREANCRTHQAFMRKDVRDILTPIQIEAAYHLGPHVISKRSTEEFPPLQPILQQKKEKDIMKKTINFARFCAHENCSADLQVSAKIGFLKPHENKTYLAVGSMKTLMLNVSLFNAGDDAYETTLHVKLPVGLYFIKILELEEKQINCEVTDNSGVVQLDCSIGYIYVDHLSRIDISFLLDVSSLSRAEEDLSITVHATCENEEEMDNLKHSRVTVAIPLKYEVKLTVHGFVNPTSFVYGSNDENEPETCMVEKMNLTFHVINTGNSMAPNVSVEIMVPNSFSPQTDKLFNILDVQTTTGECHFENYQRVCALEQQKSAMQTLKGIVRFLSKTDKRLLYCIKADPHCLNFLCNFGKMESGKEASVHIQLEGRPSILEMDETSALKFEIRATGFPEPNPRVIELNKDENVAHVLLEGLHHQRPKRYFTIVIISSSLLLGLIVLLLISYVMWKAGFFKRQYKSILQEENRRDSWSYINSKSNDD
Sequence of VLA-4 (P05556 21-798): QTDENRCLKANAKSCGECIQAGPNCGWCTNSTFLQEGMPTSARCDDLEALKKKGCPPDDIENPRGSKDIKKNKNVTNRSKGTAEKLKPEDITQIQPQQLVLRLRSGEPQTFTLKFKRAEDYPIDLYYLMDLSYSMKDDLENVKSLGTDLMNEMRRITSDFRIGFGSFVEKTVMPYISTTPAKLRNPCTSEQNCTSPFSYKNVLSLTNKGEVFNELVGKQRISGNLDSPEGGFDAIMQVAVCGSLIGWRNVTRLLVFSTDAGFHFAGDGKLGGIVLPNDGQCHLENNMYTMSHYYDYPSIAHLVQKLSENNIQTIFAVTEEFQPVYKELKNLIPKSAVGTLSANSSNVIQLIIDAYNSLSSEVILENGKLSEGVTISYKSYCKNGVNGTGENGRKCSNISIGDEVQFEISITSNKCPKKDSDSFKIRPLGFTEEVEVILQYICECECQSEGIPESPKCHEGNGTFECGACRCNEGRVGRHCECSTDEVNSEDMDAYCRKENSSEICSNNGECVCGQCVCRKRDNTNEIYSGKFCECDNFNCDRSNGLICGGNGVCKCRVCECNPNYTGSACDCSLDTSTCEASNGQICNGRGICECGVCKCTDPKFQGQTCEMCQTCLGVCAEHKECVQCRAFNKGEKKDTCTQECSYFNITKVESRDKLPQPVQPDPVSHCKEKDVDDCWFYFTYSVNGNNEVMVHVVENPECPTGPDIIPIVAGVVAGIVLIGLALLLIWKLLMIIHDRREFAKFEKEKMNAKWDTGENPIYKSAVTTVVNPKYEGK

For `CC(C)[C@@H]1CC[C@@H](C)C[C@H]1OCC(=O)N[C@@H](CC(=O)O)C(=O)N[C@@H](Cc1ccccc1)C(=O)N1CCC[C@@H]1C(N)=O` [1056.06], the “Relative Potency” value was 0.

Same assay, conditions: before the prodrug compound is enzymatically converted to an active form; relative to SEQ ID NO:3 = 1

In order of falling “Relative Potency (prodrug compound)” value:
1. CCCCCCCCCCCCCCCCCC(=O)OC1CCN(C(=O)[C@H](Cc2ccccc2)NC(=O)[C@H](CC(=O)O)NC(=O)[C@H](CC(C)C)NC(=O)Cc2ccccc2)CC1 [1068.05]  0.63
2. CCCCCCCCCCCCOC(=O)C[C@H](NC(=O)[C@H](CC(C)C)NC(=O)Cc1ccccc1)C(=O)N[C@@H](Cc1ccccc1)C(=O)N1CCC[C@@H]1C(N)=O [1068.10] (PhAc-LD(X5)F[dP]-NH2)  0
3. CCCCCCCCCCCCCCOC(=O)C[C@H](NC(=O)[C@H](CC(C)C)NC(=O)Cc1ccccc1)C(=O)N[C@@H](Cc1ccccc1)C(=O)N1CCC[C@@H]1C(N)=O [1068.11] (PhAc-LD(X1)F[dP]-NH2)  0
4. CCCCCCCCCCOC(=O)C[C@H](NC(=O)[C@H](CC(C)C)NC(=O)Cc1ccccc1)C(=O)N[C@@H](Cc1ccccc1)C(=O)N1CCC[C@@H]1C(N)=O [1068.09] (PhAc-LD(ODecyl)F[dP]-NH2)  0
5. CCN(CC)C(=O)COC(=O)C[C@H](NC(=O)[C@H](CC(C)C)NC(=O)Cc1ccccc1)C(=O)N[C@@H](Cc1ccccc1)C(=O)N1CCC[C@@H]1C(N)=O [1068.13] (PhAc-LD(X4)F[dP]-NH2)  0
6. CCCCCCCCCCCCCCCCCCOC(=O)C[C@H](NC(=O)[C@H](CC(C)C)NC(=O)Cc1ccccc1)C(=O)N[C@@H](Cc1ccccc1)C(=O)N1CCC[C@@H]1C(N)=O [1068.12] (PhAc-LD(X8)F[dP]-NH2)  0
7. CCOC(=O)C[C@H](NC(=O)[C@H](CC(C)C)NC(=O)Cc1ccccc1)C(=O)N[C@@H](Cc1ccccc1)C(=O)N1CCC[C@@H]1C(N)=O [1190.01] (PhAc-LD(OEt)F[dP]-NH2)  0

For `CC(C)C[C@H](NC(=O)Cc1ccccc1)C(=O)N[C@@H](CC(=O)OCC(=O)O)C(=O)N[C@@H](Cc1ccccc1)C(=O)N1CCC[C@@H]1C(N)=O` [1067.02] (PhAc-LD(X6)F[dP]-NH2), the “Relative Potency (prodrug compound)” value was “.81”.
In the case of `CC(C)C[C@H](NC(=O)Cc1ccccc1)C(=O)N[C@@H](CC(=O)OCC(=O)OCc1ccccc1)C(=O)N[C@@H](Cc1ccccc1)C(=O)N1CCC[C@@H]1C(N)=O` [1067.01] (PhAc-LD(X7)F[dP]-NH2), the “Relative Potency (prodrug compound)” value is reported as “.97”.
In the case of `CCCCCCCCCCCCCCCCCCNC(=O)CCCCCNC(=O)[C@@H]1CCCN1C(=O)[C@H](Cc1ccccc1)NC(=O)[C@H](CC(=O)O)NC(=O)[C@H](CC(C)C)NC(=O)Cc1ccccc1` [1068.01, phenylacetyl-Leu-Asp-Phe-Pro-NH(CH2)5 C (O)NHC18 H37] (PhAc-LDFP[Ahx]-NHOctadecyl), the “Relative Potency (prodrug compound)” value is reported as “.91”.
In the case of `CCCCCCCCCC(=O)OC1CCN(C(=O)[C@H](Cc2ccccc2)NC(=O)[C@H](CC(=O)O)NC(=O)[C@H](CC(C)C)NC(=O)Cc2ccccc2)CC1` [1068.06], the “Relative Potency (prodrug compound)” value is reported as “.63”.

Same assay, conditions: binding inhibition potency (IC50) relative to standard compound of SEQ ID NO:3 = 1; about one-tenth or less assigned zero

In the case of `CC(C)C[C@H](NC(=O)Cc1ccccc1)C(=O)N[C@@H](CC(=O)O)C(=O)N[C@@H](Cc1ccccc1)C(N)=O` [997.12] (PhAc-Leu-Asp-Phe-NH2), the “Relative Potency” value is reported as “.45”.
For `CC(C)C[C@H](NC(=O)Cc1ccccc1)C(=O)N[C@@H](CC(=O)O)C(=O)N1C(=O)N(Cc2ccccc2)C(=O)[C@H]1Cc1ccccc1` [1047.07], the “Relative Potency” value was “.38”.
With `CC(C)CN(CC(=O)Nc1ccccc1)C(=O)CN(CC(=O)O)C(=O)CN(Cc1ccccc1)C(=O)C1CCCC1` [1032.02] the “Relative Potency” value was “.63”.
`O=C(O)CC(C(=O)N[C@@H](Cc1ccccc1)C(=O)N1CCCCC1)N1CC[C@H](NC(=O)Cc2ccccc2)C1=O` (some centres unmarked) [1057.01] was tested, and the “Relative Potency” value was “.88”.
With `CC(C)C[C@H](NC(=O)Cc1ccccc1)C(=O)N[C@@H](CC(=O)O)C(=O)N1C(=O)N(Cc2ccccc2)C(=O)[C@@H]1Cc1ccccc1` [1047.08] the “Relative Potency” value was “.38”.

In order of rising “Relative Potency” value:
1. CC(C)C[C@H](NC(=O)Cc1ccccc1)C(=O)NC(C(=O)O)C(=O)N[C@@H](Cc1ccccc1)C(=O)N1CCCCC1 (some centres unmarked) [1026.02]  0
2. CC(C)C[C@@H](CN[C@@H](CC(=O)O)C(=O)N[C@@H](Cc1ccccc1)C(=O)N1CCCCC1)NC(=O)Cc1ccccc1 [1041.01]  0
3. O=C(O)C[C@H](NC1CCN(C(=O)Cc2ccccc2)CC1)C(=O)N[C@@H](Cc1ccccc1)C(=O)N1CCCC1 [992.01]  0
4. CC(C)C[C@H](NC(=O)Cc1ccccc1)C(=O)N[C@@H](CS(=O)(=O)O)C(=O)N[C@@H](Cc1ccccc1)C(=O)N1CCCCC1 [1026.06] (PhAc-Leu-[Cya]-Phe-Piperidide)  0
5. CC(C)C[C@H](NC(=O)Cc1ccccc1)C(=O)N[C@@H](CS)C(=O)N[C@@H](Cc1ccccc1)C(=O)N1CCC[C@@H]1C(N)=O [896.59] (PhAc-LCF[dP]-NH2)  0
6. CC(C)C[C@H](NC(=O)Cc1ccccc1)C(=O)N[C@@H](CS(N)(=O)=O)C(=O)N[C@@H](Cc1ccccc1)C(=O)N1CCCCC1 [1026.08]  0
7. CC(C)C[C@H](NC(=O)Cc1ccccc1)C(=O)N[C@@H](CP(=O)(O)O)C(=O)N[C@@H](Cc1ccccc1)C(=O)N1CCCCC1 [1026.07]  0
8. CC(C)C[C@H](NC(=O)Cc1ccccc1)C(=O)N(C)[C@@H](CC(=O)O)C(=O)N[C@@H](Cc1ccccc1)C(=O)N1CCC[C@@H]1C(N)=O [1190.06] (PhAc-L[NMeD]F[dP]-NH2)  0
9. CC(C)C[C@H](NC(=O)Cc1ccccc1)C(=O)NC(CC(=O)O)(CC(=O)O)C(=O)N[C@@H](Cc1ccccc1)C(=O)N1CCCCC1 [1026.01]  0
10. CC(C)C[C@H](NC(=O)Cc1ccccc1)C(=O)N[C@@H](CC(=O)O)C(=O)N(C)[C@@H](Cc1ccccc1)C(=O)N1CCC[C@@H]1C(N)=O [1190.05] (PhAc-LD[NMeF][dP]-NH2)  0
11. NC(=O)[C@H]1CCCN1C(=O)[C@H](Cc1ccccc1)NC(=O)[C@H](CC(=O)O)NC(=O)CCCCC1CCSS1 (some centres unmarked) [1056.09]  1.1
12. CC(C)C[C@H](NC(=O)c1ccccc1)C(=O)N[C@@H](CC(=O)O)C(=O)N[C@H](C(=O)N1CCC[C@@H]1C(N)=O)C(C)C [926.02]  9.6
13. NC(=O)[C@H]1CCCN1C(=O)[C@H](Cc1ccccc1)NC(=O)[C@H](CC(=O)O)NC(=O)[C@H](CC1CCCCC1)NC(=O)c1ccccc1 [896.31] (Bz-[Cha]DF[dP]-NH2)  11
14. CC(C)C[C@H](NC(=O)c1ccccc1)C(=O)N[C@@H](CC(=O)O)C(=O)N[C@H](C(=O)N1CCC[C@H]1C(N)=O)C(C)C [896.35]  16
15. CC(C)C[C@H](NC(=O)Cc1ccccc1)C(=O)N[C@@H](CC(=O)O)C(=O)NC1Cc2ccccc2N(CCN2CCOCC2)C1=O (some centres unmarked) [997.18]  20
16. CC(C)C[C@H](NC(=O)Cc1ccccc1)C(=O)N[C@@H](CC(=O)O)C(=O)N[C@@H](Cc1ccccc1)C(=O)NCCCO [1051.05]  25
17. CC(C)C[C@H](NC(=O)Cc1ccccc1)C(=O)N[C@@H](CC(=O)O)C(=O)N[C@H](C(=O)N1CCC[C@@H]1C(N)=O)c1ccccc1 [896.69] (PhAc-LD[Phg][dP]-NH2)  61
18. CC(C)C[C@H](NC(=O)Cc1ccccc1)C(=O)N[C@@H](CC(=O)O)C(=O)N[C@@H](CCc1ccccc1)C(=O)N1CCC[C@@H]1C(N)=O [1062.03] (PhAc-LD[hPhe][dP]-NH2)  93.93
19. CC(C)C[C@H](NC(=O)Cc1ccccc1)C(=O)N[C@@H](CC(=O)O)C(=O)NC1CCCCN(CC(N)=O)C1=O (some centres unmarked) [1057.06]  97
20. CC(C)C[C@H](NC(=O)Cc1ccccc1)C(=O)N[C@@H](CC(=O)O)C(=O)N[C@@H](Cc1ccccc1)C(=O)N1CCSCC1 [1111.02]  450
21. CC(C)C[C@H](NC(=O)Cc1ccccc1)C(=O)N[C@@H](CC(=O)O)C(=O)N[C@@H](Cc1ccccc1)C(=O)N1CCN(CCOCCO)CC1 [1111.07]  510

Source: patent US5821231A, “CS-1 peptidomimetics, compositions and methods of using same” (Cytel Corporation, priority 1995, dated 1998)
